US11654183B2 (INTARCIA THERAPEUTICS, INC., priority 2017, dated 2023)
Like-named read-outs stand apart in the source and are kept apart here.

Tests used:
[1] = compared to OC alone, cited from earlier work; for decrease of Cmax: repeated daily doses of OC given 30 minutes after BYETTA (10 mcg BID), healthy female subjects; for decrease of mean Cmax: repeated daily doses of OC one hour prior to BYETTA
[2] = Crossover study of ITCA 650 on steady-state PK and PD of the combination oral contraceptive Levora; conditions: ITCA 650 60 mcg/day, healthy premenopausal women
Method: Twenty-eight (28) healthy premenopausal women on a stable regimen of an OC participated in a randomized, double-blind, placebo-controlled, 2-period crossover study. […] The study included a 2-week run-in on Levora and 2 treatment periods of 28 days each. […] Subjects were crossed over to the alternative treatment and procedures were repeated in Period 2. The OC was administered daily through D28 of each period.

[3] = human, in vivo, po
Method: APAP, a marker of gastric emptying, was administered on Day (D)1 followed by the cocktail on D2. […] APAP was administered again on D27 and the cocktail on D28.

[4] = cited from earlier work
[5] = 1000 mg acetaminophen elixir given 1 hour after 10 mcg BYETTA injection
[6] = 1000 mg acetaminophen elixir given 2 hours after 10 mcg BYETTA injection
[7] = 1000 mg acetaminophen elixir given 4 hours after 10 mcg BYETTA injection
[8] = 1000 mg acetaminophen elixir given with 10 mcg BYETTA (0 h)
[9] = acetaminophen given 1 hour before BYETTA injection

C#C[C@]1(O)CC[C@H]2[C@@H]3CCC4=CC(=O)CC[C@@H]4[C@H]3CC[C@@]21CC [levonorgestrel]
decrease of Cmax [1]: 27% | decrease of mean Cmax [1]: not significantly changed | effect of ITCA 650 on PK [2]: No effect

C#C[C@]1(O)CC[C@H]2[C@@H]3CCc4cc(O)ccc4[C@H]3CC[C@@]21C [ethinyl estradiol]
decrease of Cmax [1]: 45% | decrease of mean Cmax [1]: 15%

CC(=O)Nc1ccc(O)cc1 [acetaminophen]
effect of ITCA 650 on PK of the co-administered drug [3]: minimal effect | Tmax [4, 5]: 4.2 h | decrease of Cmax [4, 5]: 56% | decrease of acetaminophen AUC [4, 5]: 23% | Tmax [4, 6]: 3.3 h | decrease of Cmax [4, 6]: 54% | decrease of acetaminophen AUC [4, 6]: 24% | Tmax [4, 7]: 1.6 h | decrease of Cmax [4, 7]: 41% | decrease of acetaminophen AUC [4, 7]: 14% | Tmax [4, 8]: 0.9 h | decrease of Cmax [4, 8]: 37% | decrease of acetaminophen AUC [4, 8]: 21% | AUC change [4, 9]: not significantly changed | Cmax change [4, 9]: not significantly changed | Tmax change [4, 9]: not significantly changed | Tmax ([4]; control period (without BYETTA)): 0.6 h
